Laboratory results from patent US20160045505A1, “COMPOUNDS AND COMPOSITIONS FOR THE TREATMENT OF PARASITIC DISEASES” (NOVARTIS AG, priority 2013, published 2016).
Where two headings read alike, the source gives them in different places.

Key:
[1] = test system: Leishmania donovani axenic amastigote parasites; test: Leishmania donovani axenic amastigote proliferation assay (Cell TiterGlo luminescence, 2 day incubation); assay type: cell-based; conditions: read-out: L. donovani amastigotes EC50
[2] = test system: Trypanosoma brucei Lister 427 strain, bloodstream form; test: Assay for proliferation of kinetoplastid parasite Trypanosoma brucei (Cell Titer Glo, 48 hours); assay type: cell-based; conditions: T. brucei Lister 427 bloodstream form, read-out: T. brucei EC50
Description: Assay for Proliferation of Kinetoplastid Parasite Trypanosoma brucei.
The proliferation is quantified by the addition of Cell Titer Glo (Promega®) a luminescent cell viability assay that measures the number of viable cells in culture based on the quantification of cellular ATP amount, which is an indicator of metabolically active cells.
The following assay illustrates the invention without in any way limiting the scope of the invention. This parasite proliferation assay measures the increase in parasite growth using an assay that measures ATP activity, Cell Titer Glo®.
Trypanosoma brucei Lister 427 strain is grown in HMI-9 Trypanosome media for T. brucei bloodstream form. 30 μl of HMI-9 media is dispensed into 384 well assay plates. 200 nl of compounds of the invention (in DMSO), including anti-trypanosome controls (Pentamidine and suramin), are then transferred into the assay plates, as well as DMSO alone to serve as a negative control for inhibition. Then 25 μl of a suspension of T. brucei culture in HMI-9 media is dispensed into the assay plates. The final concentration of parasites in culture corresponds to 1.7% of 0.5 uM ATP activity with Cell Titer Glo® in HMI-9 media. The plates are placed in a 37° C. incubator for 48 hours in an atmospheric environment containing 5% CO2. 40 μl of Cell Titer Glo® is dispensed into the plates. The plates are then read for luminescence. The percentage inhibition of 50%, EC50, is calculated for each compound.

[3] = test system: L. donovani HU3 strain in mouse peritoneal macrophages; test: Assay for proliferation of Leishmania parasites in infected mouse peritoneal macrophages (SybrGreen staining, high-content imaging, 5 days); assay type: cell-based, Leishmania donovani; conditions: L. donovani in mouse peritoneal macrophages, read-out: L. donovani Macrophage EC50
[4] = test system: Trypanosoma cruzi amastigotes (Tulahuen strain expressing Lac-Z) cultured in 3T3 fibroblast cells; test: microbe, parasite or virus in culture; assay type: cell-based; conditions: T. cruzi amastigotes in 3T3 fibroblast cells, read-out: T cruzi EC50
[5] = axenic amastigotes, inhibition of proliferation
[6] = Trypanosoma cruzi, TULAHUEN, Fibroblast, inhibition of proliferation
[7] = Leishmania donovani, axenic amastigotes, inhibition of proliferation
[8] = Trypanosoma brucei, inhibition of proliferation
[9] = Leishmania donovani, Peritoneal macrophage, inhibition of proliferation
[10] = Leishmania donovani, L. donovani axenic amastigotes
[11] = Leishmania donovani, Peritoneal macrophage
[12] = Trypanosoma cruzi, TULAHUEN, Fibroblast

Compound	EC50 [1, 10] [nM]	EC50 ([2]; Trypanosoma brucei) [nM]	EC50 [3, 11] [nM]	EC50 [1, 7] [nM]	EC50 [2, 8] [nM]	EC50 [3, 9] [nM]	other results
Cc1nc(C)c(C(=O)Nc2ccc(F)c(-c3cn4cc(NC(=O)C5CCCCO5)cnc4n3)c2)o1 (single isomer, unassigned) [Compound 184]							EC50 [1, 5]: 146 nM; EC50 ([2]; inhibition of proliferation): 175 nM; EC50 ([3]; inhibition of proliferation): 333 nM; EC50 [4, 6]: 565 nM
Cc1nc(C)c(C(=O)Nc2ccc(F)c(-c3cn4cc(NC(=O)C5CCCCO5)cnc4n3)c2)o1 (single isomer, unassigned) [Compound 185]							EC50 [1, 5]: 462 nM; EC50 ([2]; inhibition of proliferation): 954 nM; EC50 ([3]; inhibition of proliferation): 1140 nM; EC50 ([4]; inhibition of proliferation): 1070 nM
CC(C)OC(=O)Nc1cnc2nc(-c3cc(NC(=O)c4cocn4)ccc3Cl)cn2c1 [Compound 43]				782	474	3910	EC50 [4, 6]: 409 nM
CC(C)OC(=O)Nc1cnc2nc(-c3cc(NC(=O)c4ccc(Cl)o4)ccc3Cl)cn2c1 [Compound 44]				121	39	193	EC50 [4, 6]: 47 nM
Cc1nc(C)c(C(=O)Nc2ccc(Cl)c(-c3cn4cc(NC(=O)OC(C)C)cnc4n3)c2)o1 [Compound 45]				226	522	452	EC50 [4, 6]: 400 nM
Cc1nc(C(=O)Nc2ccc(Cl)c(-c3cn4cc(NC(=O)OC(C)C)cnc4n3)c2)c(C)o1 [Compound 46]				1390	3010	4990	EC50 [4, 6]: 262 nM
Cc1ncc(C(=O)Nc2ccc(Cl)c(-c3cn4cc(NC(=O)OC(C)C)cnc4n3)c2)o1 [Compound 47]				77	128	220	EC50 [4, 6]: 442 nM
CC(C)OC(=O)Nc1cnc2nc(-c3cc(NC(=O)c4cn5cccnc5n4)ccc3Cl)cn2c1 [Compound 49]				> 25000	> 50000	> 50000	EC50 [4, 6]: > 20000 nM
CC(=O)Nc1ncc(C(=O)Nc2ccc(Cl)c(-c3cn4cc(NC(=O)OC(C)C)cnc4n3)c2)s1 [Compound 50]				> 25000	> 50000	> 50000	EC50 [4, 6]: > 20000 nM
CC(C)OC(=O)Nc1cnc2nc(-c3cc(NC(=O)c4cnco4)ccc3Cl)cn2c1 [Compound 52]				261	571	2740	EC50 [4, 6]: 1280 nM
Cc1nc(C)c(C(=O)Nc2ccc(F)c(-c3cn4cc(C5CC5)cnc4n3)c2)o1 [Compound 339, N-(3-(6-cyclopropylimidazo[1,2-a]pyrimidin-2-yl)-4-fluorophenyl)-2,4-dimethyloxazole-5-carboxamide]				85	80	272	
Cc1nc(C)c(C(=O)Nc2ccc(F)c(-c3cn4cc(-c5ccc(CCO)cn5)cnc4n3)c2)o1 [Compound 350]				16	53	128	
Cc1nc(C)c(C(=O)Nc2ccc(F)c(-c3cn4cc(-c5sc(C)nc5C)cnc4n3)c2)o1 [Compound 365]				102	59	200	
Cc1cccnc1-c1cnc2nc(-c3cc(NC(=O)N4CC(F)(F)C4)ccc3F)cn2c1 [Compound 403]	63	55	181				
Cc1cccnc1-c1cnc2nc(-c3cc(NC(=O)N4CC[C@@H](F)C4)ccc3F)cn2c1 [Compound 410]	22	17	65				
O=C(Nc1cnc2nc(-c3cc(NC(=O)N4CCCC4)ccc3F)cn2c1)OCc1ccccc1 [Compound 512, benzyl (2-(2-fluoro-5-(pyrrolidine-1-carboxamido)phenyl)imidazo[1,2-a]pyrimidin-6-yl)carbamate]	211	76	2990				
COCCN1CCC(c2cnc3nc(-c4cc(NC(=O)c5oc(C)nc5C)ccc4F)cn3c2)CC1 [Compound 540]	> 25000	868					EC50 [4, 12]: 1330 nM
Cc1nc(C)c(C(=O)Nc2ccc(F)c(-c3cn4cc(C5CCN(CCO)CC5)cnc4n3)c2)o1 [Compound 541]	> 25000	9920					EC50 [4, 12]: > 20000 nM
Cc1nc(C)c(C(=O)Nc2ccc(F)c(-c3cn4cc(C5CCN(C(=O)CO)CC5)cnc4n3)c2)o1 [Compound 542, N-(4-fluoro-3-(6-(1-(2-hydroxyacetyl)piperidin-4-yl)imidazo[1,2-a]pyrimidin-2-yl)phenyl)-2,4-dimethyloxazole-5-carboxamide]	450	467					EC50 [4, 12]: 8060 nM
Cc1nc(C)c(C(=O)Nc2ccc(F)c(-c3cn4cc(CC(F)(F)F)cnc4n3)c2)o1 [Compound 575, N-(4-fluoro-3-(6-(2,2,2-trifluoroethyl)imidazo[1,2-a]pyrimidin-2-yl)phenyl)-2,4-dimethyloxazole-5-carboxamide]	78	22					EC50 [4, 12]: 52 nM

Second part, led by results:

EC50 [1, 10] [nM]	EC50 ([2]; Trypanosoma brucei) [nM]	EC50 [3, 11] [nM]	Compound	EC50 [1, 7] [nM]	EC50 [2, 8] [nM]	EC50 [3, 9] [nM]	other results
958	426	1580	O=C(Nc1cnc2nc(-c3ccc(F)c(NC(=O)N4CCCC4)c3)cn2c1)OCc1ccccc1 [Compound 513, Benzyl (2-(4-fluoro-3-(pyrrolidine-1-carboxamido)phenyl)imidazo[1,2-a]pyrimidin-6-yl)carbamate]				
641	84	1640	O=C(Nc1ccc(F)c(-c2cn3cc(F)cnc3n2)c1)N1CCCC1 [Compound 514]				
> 25000	> 50000	21000	CN1CCN(C(=O)Nc2ccc(F)c(-c3cn4cc(Br)cnc4n3)c2)CC1 [Compound 516]				
4590	1430	> 50000	COC(=O)Nc1ccc(F)c(-c2cn3cc(Br)cnc3n2)c1 [Compound 517]				
> 25000	> 50000	37700	CC(C)Nc1ccc(F)c(-c2cn3cc(NC(=O)OC(C)C)cnc3n2)c1 [Compound 523]				
7230	3260	> 50000	CC(=O)Nc1ccc(F)c(-c2cn3cc(NC(=O)OC(C)(C)C)cnc3n2)c1 [Compound 529, tert-butyl (2-(5-acetamido-2-fluorophenyl)imidazo[1,2-a]pyrimidin-6-yl)carbamate]				
13900	17800	> 50000	CC(C)(C)OC(=O)Nc1cnc2nc(-c3cc(NC=O)ccc3F)cn2c1 [Compound 532, tert-butyl (2-(2-fluoro-5-formamidophenyl)imidazo[1,2-a]pyrimidin-6-yl)carbamate]				
> 25000	17200	> 50000	CN(C(=O)N1CCCC1)c1ccc(F)c(-c2cn3cc(N)cnc3n2)c1 [Compound 558]				
1140	212	12000	O=C(Nc1ccc(F)c(-c2cn3cc(NC(=O)C(F)(F)F)cnc3n2)c1)N1CCCC1 [Compound 566, N-(4-fluoro-3-(6-(2,2,2-trifluoroacetamido)imidazo[1,2-a]pyrimidin-2-yl)phenyl)pyrrolidine-1-carboxamide]				
> 25000	12100	> 50000	CC(=O)Nc1ccc(F)c(-c2cn3cc(NC(C)=O)cnc3n2)c1 [Compound 567, N-(2-(5-acetamido-2-fluorophenyl)imidazo[1,2-a]pyrimidin-6-yl)acetamide]				
> 25000	36200	> 50000	CC(C)(C)OC(=O)Nc1cnc2nc(-c3cccc(NC(=O)N4CCCC4)c3F)cn2c1 [Compound 579]				
> 25000	> 50000	2270	CC(C)c1cnc2nc(-c3cc(N)ccc3F)cn2c1 [Compound 584, 4-fluoro-3-(6-isopropylimidazo[1,2-a]pyrimidin-2-yl)aniline]				
552	59	4000	CN(CC(F)(F)F)C(=O)Nc1ccc(F)c(-c2cn3cc(Br)cnc3n2)c1 [Compound 586, 3-(3-(6-bromoimidazo[1,2-a]pyrimidin-2-yl)-4-fluorophenyl)-1-methyl-1-(2,2,2-trifluoroethyl)urea]				
145	53	428	CC(C)Nc1cnc2nc(-c3cc(NC(=O)N4CC(F)C4)ccc3F)cn2c1 [Compound 592]				
255	54	160	CN(C)c1cnc2nc(-c3cc(NC(=O)N4CC(F)C4)ccc3F)cn2c1 [Compound 593]				
